Results taken from patent US20220348868A1, “METHOD OF PRODUCING SKIN-DERIVED PRECURSOR CELLS” (KAO CORPORATION, priority 2014, published 2022).

Tested on: human iPS cell-derived neural crest stem cells
Experiment: Induction of differentiation from human iPS cell-derived neural crest stem cells to SKPs, observed by microphotograph
Assay type: cell-based
Settings: CHIR99021 added at 0.5 micromolar to 5 micromolars (tested 0, 0.1, 0.5, 3, 5 micromolar)
Method: Based on the method described in Nature protocols, 5, pp. 688-701 (2010) or Cell reports, 3, pp. 1140-1152 (2013), the iPS cells subjected to the passage culture in Test Example 1 were cultured in a culture medium prepared by adding noggin (catalog number: 6057-NG-100/CF, 500 ng/mL, manufactured by R&D Systems, Inc.) and/or SB431542 (catalog number: 1614, 10 micromolars, manufactured by TOCRIS Bioscience) to a hES medium (−) bFGF for 5 days to 2 weeks to induce differentiation from human iPS cells to neural crest stem cells. The above-described iPS cell-derived neural crest stem cells were cultured in a D-MEM/F12 medium (catalog number: 10565-018, manufactured by Life Technologies Corporation) containing B-27 supplement (catalog number: 17504-044, 2% by mass, manufactured by life Technologies Corporation), EGF (catalog number: 336-EG-200, 20 ng/mL, manufactured by R&D Systems, Inc.), bFGF (catalog number: 064-04541, 40 ng/mL, manufactured by Wako Pure Chemical Industries, Ltd.), penicillin/streptomycin (catalog number: 15140-122, 50U, 50 microgram/mL, manufactured by Life Technologies Corporation) and 0 micromolar to 5 micromolars of CHIR99021 (catalog number 13122, manufactured by Cayman Chemical Company). […]

## Cc1c[nH]c(-c2cnc(NCCNc3ccc(C#N)cn3)nc2-c2ccc(Cl)cc2Cl)n1 [CHIR99021]
After selective passage culture of SKPs, FIG. 2, P1
  amount of cells differentiated to SKPs, after passage culture (P1): a larger amount of the cells differentiated to SKPs grew
Culture 3 to 5 days, FIG. 2, P0
  amount of cells differentiated to SKPs, before passage culture (P0): a larger amount of the cells differentiated to SKPs was migrated in a peripheral area of the colony
